In ChEMBL document CHEMBL5120808, “6-Aryl-quinazolines as novel GABAB receptor positive allosteric modulators” (Bioorg Med Chem Lett, 2022):
The source made the active and inactive calls. No cut-off for these calls is given here.

Experiments:
GABA-B receptor = GABA-B receptor (Homo sapiens, UniProt O75899+Q9UBS5); assay: Positive allosteric modulation of GABA-B receptor (unknown origin) assessed as stimulation of [35S]GTPgammaS binding by [35S]GTPgammaS binding assay; format: functional
[1] = Metabolic stability in human assessed as parent compound remaining; format: ADME
[2] = Metabolic stability in rat assessed as parent compound remaining; format: ADME
[3] = Metabolic stability in mouse assessed as parent compound remaining; format: ADME
Mus musculus [4] = assay: Potentiation of baclofen induced skeletal muscle relaxation in po dosed NMRI mouse assessed as effective dose by Litchfield-Wilcoxon method; format: functional
[5] = AUC (0 to 24 hrs) in NMRI mouse plasma at 10 mg/kg, po measured up to 24 hrs; format: ADME, organism-based; set-up: time < 24 hrs, dose 10 mg/kg, route po
[6] = Cmax in NMRI mouse brain at 10 mg/kg, po measured up to 24 hrs; format: ADME, organism-based; set-up: time < 24 hrs, dose 10 mg/kg, route po
[7] = Tmax in NMRI mouse plasma at 10 mg/kg, po measured up to 24 hrs; format: ADME, organism-based
[8] = Cmax in NMRI mouse plasma at 10 mg/kg, po measured up to 24 hrs; format: ADME, organism-based; set-up: dose 10 mg/kg, time < 24 hrs, route po
Mus musculus [9] = assay: Potentiation of baclofen induced skeletal muscle relaxation in NMRI mouse at 3 to 30 mg/kg, po by traction test; format: functional, organism-based; conditions: dose 3-30 mg/kg
[10] = Half life in NMRI mouse brain at 10 mg/kg, po measured up to 24 hrs; format: ADME, organism-based
[11] = Tmax in NMRI mouse brain at 10 mg/kg, po measured up to 24 hrs; format: ADME, organism-based
[12] = AUC (0 to 24 hrs) in NMRI mouse brain at 10 mg/kg, po measured up to 24 hrs; format: ADME, organism-based; set-up: time < 24 hrs, dose 10 mg/kg, route po
Mus musculus [13] = assay: Potentiation of baclofen induced loss of righting reflex in po dosed NMRI mouse assessed as effective dose by Litchfield-Wilcoxon method; format: functional

GABA-B receptor, sequence (Q9UBS5 whole entry): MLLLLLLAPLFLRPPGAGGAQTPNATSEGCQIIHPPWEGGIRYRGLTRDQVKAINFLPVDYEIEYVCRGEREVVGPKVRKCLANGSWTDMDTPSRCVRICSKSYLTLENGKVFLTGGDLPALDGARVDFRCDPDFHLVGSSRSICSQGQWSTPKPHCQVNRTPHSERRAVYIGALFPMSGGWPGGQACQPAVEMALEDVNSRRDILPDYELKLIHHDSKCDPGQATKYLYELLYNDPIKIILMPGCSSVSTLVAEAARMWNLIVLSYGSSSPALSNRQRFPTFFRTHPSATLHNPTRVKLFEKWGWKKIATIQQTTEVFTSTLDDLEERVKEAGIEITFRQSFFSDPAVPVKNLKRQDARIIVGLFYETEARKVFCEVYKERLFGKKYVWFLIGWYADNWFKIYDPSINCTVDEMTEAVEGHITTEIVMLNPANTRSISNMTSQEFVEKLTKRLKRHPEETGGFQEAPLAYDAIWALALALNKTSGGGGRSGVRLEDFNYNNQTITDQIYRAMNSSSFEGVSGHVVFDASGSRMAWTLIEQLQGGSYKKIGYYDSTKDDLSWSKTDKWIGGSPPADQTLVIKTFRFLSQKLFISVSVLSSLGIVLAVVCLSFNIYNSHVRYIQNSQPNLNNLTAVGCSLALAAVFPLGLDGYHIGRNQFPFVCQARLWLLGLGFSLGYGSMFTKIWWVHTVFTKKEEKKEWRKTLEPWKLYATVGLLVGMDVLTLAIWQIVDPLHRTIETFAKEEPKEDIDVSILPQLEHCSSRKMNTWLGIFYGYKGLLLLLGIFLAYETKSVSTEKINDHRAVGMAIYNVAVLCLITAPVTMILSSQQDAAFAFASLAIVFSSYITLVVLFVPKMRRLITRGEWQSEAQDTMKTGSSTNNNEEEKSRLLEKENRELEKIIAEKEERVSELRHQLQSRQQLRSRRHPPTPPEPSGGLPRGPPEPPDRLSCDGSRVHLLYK
GABA-B receptor, sequence (O75899 whole entry): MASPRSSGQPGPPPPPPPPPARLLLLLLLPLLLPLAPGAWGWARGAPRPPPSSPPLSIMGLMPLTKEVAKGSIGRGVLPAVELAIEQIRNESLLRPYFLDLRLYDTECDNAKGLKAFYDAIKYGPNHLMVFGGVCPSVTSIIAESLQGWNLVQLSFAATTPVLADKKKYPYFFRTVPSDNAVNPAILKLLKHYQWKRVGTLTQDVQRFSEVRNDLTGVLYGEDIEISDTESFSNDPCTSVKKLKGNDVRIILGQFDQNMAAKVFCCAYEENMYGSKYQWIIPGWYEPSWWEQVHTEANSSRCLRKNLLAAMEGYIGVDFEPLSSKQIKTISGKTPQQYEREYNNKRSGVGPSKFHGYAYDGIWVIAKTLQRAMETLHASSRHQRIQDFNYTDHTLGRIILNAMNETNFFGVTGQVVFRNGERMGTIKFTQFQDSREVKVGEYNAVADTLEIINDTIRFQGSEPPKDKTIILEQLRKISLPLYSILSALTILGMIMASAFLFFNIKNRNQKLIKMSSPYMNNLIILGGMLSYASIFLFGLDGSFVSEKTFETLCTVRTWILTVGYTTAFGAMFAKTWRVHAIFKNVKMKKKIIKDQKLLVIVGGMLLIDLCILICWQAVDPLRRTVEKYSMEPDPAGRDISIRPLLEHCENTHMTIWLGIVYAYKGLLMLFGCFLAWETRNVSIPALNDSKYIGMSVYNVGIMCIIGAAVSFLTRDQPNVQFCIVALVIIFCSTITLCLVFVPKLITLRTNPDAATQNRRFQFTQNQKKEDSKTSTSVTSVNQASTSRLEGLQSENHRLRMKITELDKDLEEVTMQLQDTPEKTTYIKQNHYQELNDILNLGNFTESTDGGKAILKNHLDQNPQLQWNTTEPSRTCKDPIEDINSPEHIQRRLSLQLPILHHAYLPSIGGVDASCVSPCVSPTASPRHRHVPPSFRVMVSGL

Row | EC50 (GABA-B receptor) | Stability [1] | Stability [2] | Stability [3] | Structure (SMILES) | other results
1 | 419 nM | 56% | 63% | 74% | Cc1nc(N[C@@H]2C[C@H]3CC[C@@H]2C3)c2cc(-c3ccc(Cl)c(Cl)c3)ccc2n1 | –
2 | 444 nM | 47% | 49% | 39% | Cc1nc(N[C@@H]2C[C@H]3CC[C@@H]2C3)c2cc(-c3ccc(Cl)cc3)ccc2n1 | ED50 (Mus musculus [4]): 12.7 mg/kg
3 | 90 nM | 58% | 67% | 63% | FC(F)(F)c1cccc(-c2ccc3nc(Cl)nc(N[C@@H]4C[C@H]5CC[C@@H]4C5)c3c2)c1 | –
4 | 97 nM | 62% | 37% | 44% | Cc1nc(N[C@@H]2C[C@H]3CC[C@@H]2C3)c2cc(-c3cc(Cl)cc(Cl)c3)ccc2n1 | –
5 | 294 nM | 47% | 36% | 53% | Fc1ccc(-c2ccc3nc(Cl)nc(N[C@@H]4C[C@H]5CC[C@@H]4C5)c3c2)cc1 | –
6 | 199 nM | 50% | 23% | 27% | Cc1nc(N[C@@H]2C[C@H]3CC[C@@H]2C3)c2cc(-c3cccc(Cl)c3)ccc2n1 | –
7 | 637 nM | 73% | 84% | 95% | FC(F)(F)c1ccc(-c2ccc3nc(Cl)nc(N[C@@H]4C[C@H]5CC[C@@H]4C5)c3c2)cc1 | AUC(0-t) at 24 h [5]: 4660 ng·h/mL; Cmax [6]: 100 ng/mL; Tmax [7]: 1 h; Cmax [8]: 586 ng/mL; Activity (Mus musculus [9]): Active; half-life [10]: 8.94 h; Tmax [11]: 2 h; AUC(0-t) at 24 h [12]: 852 ng·h/mL; ED50 (Mus musculus [13]): 2.9 mg/kg; ED50 (Mus musculus [4]): 8.1 mg/kg
8 | 771 nM | 66% | 77% | 66% | Cc1nc(N[C@@H]2C[C@H]3CC[C@@H]2C3)c2cc(-c3ccc(C(F)(F)F)cc3)ccc2n1 | –
9 | 208 nM | 46% | 85% | 40% | Clc1ccc(-c2ccc3nc(Cl)nc(N[C@@H]4C[C@H]5CC[C@@H]4C5)c3c2)cc1 | ED50 (Mus musculus [4]): 25.6 mg/kg
10 | – | 65% | 24% | 42% | Cc1ncc(-c2ccc(C(F)(F)F)cc2)c(N[C@@H]2C[C@H]3CC[C@@H]2C3)n1 | –
11 | 341 nM | 69% | 59% | 67% | Clc1nc(N[C@@H]2C[C@H]3CC[C@@H]2C3)c2cc(-c3ccc(Cl)c(Cl)c3)ccc2n1 | –
12 | 142 nM | 75% | 41% | 41% | Cc1nc(N[C@@H]2C[C@H]3CC[C@@H]2C3)c2cc(-c3cccc(C(F)(F)F)c3)ccc2n1 | –
13 | 496 nM | 57% | 31% | 23% | Cc1nc(N[C@@H]2C[C@H]3CC[C@@H]2C3)c2cc(-c3ccccc3Cl)ccc2n1 | –
14 | – | 85% | 76% | 62% | Clc1cc(Cl)cc(-c2ccc3nc(Cl)nc(N[C@@H]4C[C@H]5CC[C@@H]4C5)c3c2)c1 | –
